Measurements from paper PMC7504677, “Impact of N-Alkylamino Substituents on Serotonin Receptor (5-HTR) Affinity and Phosphodiesterase 10A (PDE10A) Inhibition of Isoindole-1,3-dione Derivatives” (Molecules, 2020).

Experiments:
PDE10A = PDE10A (Homo sapiens, UniProt Q9Y233); experiment: luminescence PDE inhibition assay (PDElight HTS cAMP phosphodiesterase assay kit); format: biochemical
Protocol: Test and reference compounds were dissolved in dimethyl sulfoxide (DMSO) at a concentration of 1 mM and further diluted in assay buffer in order to obtain the final concentration of compounds: 10 µM and 3 µM, respectively. All reactions were carried out at 37 °C in white, half-area 96-well plates (Perkin Elmer, Waltham, MA, USA). The inhibition of PDE 10A enzyme was measured using the PDElight HTS cAMP phosphodiesterase assay kit (Lonza) according to the manufacturer’s recommendations. 2.5 U of PDE 10A enzyme was preincubated either with DMSO (vehicle control) or compound for 20 min before incubation with the substrate, cAMP (final concentration 1.25 µM), for 1 h. Then, PDELight AMP Detection Reagent was added. After 10 min incubation, the luminescence was measured in a multifunction plate reader (POLARstar Omega, BMG Labtech, Ortenberg, Germany).

5-HT1A receptor = molecular target: T1, 5-HT1A receptor (Homo sapiens, UniProt P08908); experiment: radioligand binding assay, [3H]8-OH-DPAT; conditions: read-out: 5-HT1A 1 µM ± SEM (% of control specific binding)
T1 sequence (P08908 1-422): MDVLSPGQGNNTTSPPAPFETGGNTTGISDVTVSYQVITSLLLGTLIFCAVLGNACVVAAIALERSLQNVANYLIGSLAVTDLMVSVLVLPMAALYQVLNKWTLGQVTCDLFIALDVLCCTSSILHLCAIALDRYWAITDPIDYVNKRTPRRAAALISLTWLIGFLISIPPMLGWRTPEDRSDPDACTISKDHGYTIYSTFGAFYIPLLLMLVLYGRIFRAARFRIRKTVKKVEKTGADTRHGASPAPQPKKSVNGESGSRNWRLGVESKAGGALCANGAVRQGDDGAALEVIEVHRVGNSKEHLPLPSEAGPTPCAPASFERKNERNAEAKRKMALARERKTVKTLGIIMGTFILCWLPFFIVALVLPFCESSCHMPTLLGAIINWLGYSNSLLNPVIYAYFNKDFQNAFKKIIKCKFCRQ
Protocol: (§1) Briefly: binding experiments were conducted in 96-well microplates in a total final volume of 250 μL of appropriate buffers. Reaction mix included 50 μL solution of test compound, 50 μL of radioligand ([^3H]8-OH-DPAT for 5-HT1A, and [^3H]-LSD for 5-HT7, respectively) and 150 μL of diluted membranes (see description and Table S2 in Supporting Materials). Specific assay conditions for each receptor are described elsewhere. The radioactivity was measured in a MicroBeta2 scintillation counter (PerkinElmer, USA). Each compound was tested in the assay as duplicate samples at 1 µM final concentrations. Results were expressed as percent inhibition of specific binding.

5-HT7 receptor = 5-HT7 receptor (Homo sapiens, UniProt P34969); experiment: radioligand binding assay, [3H]-LSD; conditions: read-out: 5-HT7 1 µM ± SEM (% of control specific binding)
Protocol: as §1

5-HT2A receptor = molecular target: T2, 5-HT2A receptor (Homo sapiens, UniProt P28223); experiment: CEREP screening, inhibition of control binding; conditions: CEREP Laboratories, read-out: percent of inhibition of the control binding for 5-HT2A
T2 construct: Cerep (protocol)

D2 receptor = molecular target: T3, D2 receptor (Homo sapiens, UniProt P14416); experiment: CEREP screening, inhibition of control binding; conditions: CEREP Laboratories, read-out: percent of inhibition of the control binding for D2
T3 construct: Cerep (protocol)

[1] = system: HePG2 human liver cancer cell-line; experiment: MTT cytotoxicity assay; format: cell-based; conditions: HepG2 cells, 24 h, 0.1–100 µM
Protocol: (§2) The HePG2 human liver cancer cell-line, (ATCC® 59195™) and the SH-SY5Y human neuroblastoma cell-line (ATCC® CRL-2266™) were used in the study. The cells were cultured in standard conditions (37 °C, 5% CO2), in EMEM (HepG2 and SH-SY5Y), supplemented with 10% fetal bovine serum (FBS) (Gibco, Thermo Fisher Scientific, Waltham, MA. USA) and antibiotics (Lonza, Köln, Germany).
(§3) The MTT assay was used to determine the cytotoxic effects of the analyzed compounds. Cells were seeded at a density of 2 × 10^4 in 96-well plates. Following overnight culture, cells were then treated with increasing concentrations of compound 18 (0.1–100 µM) and incubated for 24 h. Following cell exposure for 24 h, 10 µL MTT reagent (Sigma Aldrich) was added to each well and, after 3 h of incubation (37 °C, 5% CO2), the medium was aspirated and the formazan produced in the cells appeared as dark crystals in the bottom of the wells. Next, Crystal DMSO was added to each well. Then, the optical density (OD) of each well was determined at 570 nm on a plate-reader (Spectra iD3, Molecular Devices, San Jose, CA, USA). The number of metabolically active and living cells is directly proportional to the absorbance of the samples. The results are presented in Figure 5 as the percentage of control ± SEM. Doxorubicin was used as reference standard (cytotoxic agent).

[2] = system: SH-SY5Y human neuroblastoma cell-line; experiment: MTT cytotoxicity assay; format: cell-based; conditions: SHSY-5Y cells, 24 h, 0.1–100 µM
Protocol: as §2, §3

CD-1 mice [3] = experiment: d-amphetamine-induced hyperlocomotor activity; format: in vivo
Protocol: The experiments were performed on male CD-1 mice (in the accredited animal facility at the Jagiellonian University Medical College, Krakow, Poland), and mice were kept in groups of ten in Makrolon type 3 cages (dimensions 26.5 × 15 × 42 cm). The animals were kept in an environmentally controlled room (ambient temperature 22 ± 2 °C; relative humidity 50–60%; 12:12 light:dark cycle, lights on at 8:00). They were allowed to acclimatize with the environment for one week before commencement of the experiments. Standard laboratory food (Ssniff M-Z) and filtered water were freely available. All the experimental procedures were approved by the I Local Ethics Commission at the Jagiellonian University in Krakow (Approval Nos.: 125/2017, 123/2015, and 158/2017). All the experiments were conducted in the light phase between 09.00 and 14.00 h. Each experimental group consisted of 7–10 animals per treatment dose. The animals were used only once. Locomotor activity was recorded with an Opto M3 multi-channel activity monitor (MultiDevice Software v.1.3, Columbus Instruments, Columbus, OH, USA). The CD-1 mice were individually placed in plastic cages (22 × 12 × 13 cm) immediately after drug administration, and then ambulation was counted during 1 h with data recording every 10 min. The cages were cleaned up with 70% ethanol after each mouse. […] All compounds were injected at a volume of 10 mL/kg. Control animals received a vehicle injection according to the same schedule.

CD-1 mice [4] = experiment: spontaneous locomotor activity; format: in vivo; conditions: for spontaneous locomotor activity: 60 mg/kg ip, mean ± S.E.M.
Protocol: The experiments were performed on male CD-1 mice (in the accredited animal facility at the Jagiellonian University Medical College, Krakow, Poland), and mice were kept in groups of ten in Makrolon type 3 cages (dimensions 26.5 × 15 × 42 cm). The animals were kept in an environmentally controlled room (ambient temperature 22 ± 2 °C; relative humidity 50–60%; 12:12 light:dark cycle, lights on at 8:00). They were allowed to acclimatize with the environment for one week before commencement of the experiments. Standard laboratory food (Ssniff M-Z) and filtered water were freely available. All the experimental procedures were approved by the I Local Ethics Commission at the Jagiellonian University in Krakow (Approval Nos.: 125/2017, 123/2015, and 158/2017).
All the experiments were conducted in the light phase between 09.00 and 14.00 h. Each experimental group consisted of 7–10 animals per treatment dose. The animals were used only once.
Locomotor activity was recorded with an Opto M3 multi-channel activity monitor (MultiDevice Software v.1.3, Columbus Instruments, Columbus, OH, USA). The CD-1 mice were individually placed in plastic cages (22 × 12 × 13 cm) immediately after drug administration, and then ambulation was counted during 1 h with data recording every 10 min. The cages were cleaned up with 70% ethanol after each mouse.
Locomotor activity was recorded according to the method described above.
All compounds were injected at a volume of 10 mL/kg. Control animals received a vehicle injection according to the same schedule.

PDE10A, sequence (Q9Y233 whole entry, species assumed): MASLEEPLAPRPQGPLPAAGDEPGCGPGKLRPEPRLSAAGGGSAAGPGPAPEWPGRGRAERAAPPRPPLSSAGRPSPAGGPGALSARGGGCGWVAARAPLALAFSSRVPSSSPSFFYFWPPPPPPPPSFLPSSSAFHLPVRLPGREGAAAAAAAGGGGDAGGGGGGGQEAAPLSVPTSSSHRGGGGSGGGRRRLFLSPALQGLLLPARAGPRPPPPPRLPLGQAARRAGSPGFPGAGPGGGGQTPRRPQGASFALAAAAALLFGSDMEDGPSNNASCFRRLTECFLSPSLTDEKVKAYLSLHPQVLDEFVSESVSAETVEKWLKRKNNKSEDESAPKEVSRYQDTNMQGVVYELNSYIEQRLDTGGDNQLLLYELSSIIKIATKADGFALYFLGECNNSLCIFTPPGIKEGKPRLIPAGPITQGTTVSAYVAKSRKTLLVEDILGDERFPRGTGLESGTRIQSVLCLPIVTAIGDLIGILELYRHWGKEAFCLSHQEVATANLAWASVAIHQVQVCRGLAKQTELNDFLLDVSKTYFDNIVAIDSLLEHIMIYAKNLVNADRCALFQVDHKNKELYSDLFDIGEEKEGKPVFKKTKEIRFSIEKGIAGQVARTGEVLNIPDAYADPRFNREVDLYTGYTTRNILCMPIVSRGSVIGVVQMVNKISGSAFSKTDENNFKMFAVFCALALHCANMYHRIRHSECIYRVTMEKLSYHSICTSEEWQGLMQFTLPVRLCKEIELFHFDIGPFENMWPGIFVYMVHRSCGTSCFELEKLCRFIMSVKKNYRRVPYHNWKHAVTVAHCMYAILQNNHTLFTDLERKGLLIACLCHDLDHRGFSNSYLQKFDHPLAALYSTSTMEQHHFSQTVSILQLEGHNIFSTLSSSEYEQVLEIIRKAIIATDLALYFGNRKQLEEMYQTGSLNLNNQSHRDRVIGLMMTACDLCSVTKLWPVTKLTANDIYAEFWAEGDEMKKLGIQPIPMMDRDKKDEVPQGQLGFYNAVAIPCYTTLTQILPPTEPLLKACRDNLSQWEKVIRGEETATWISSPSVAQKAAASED
T2 sequence (P28223 whole entry): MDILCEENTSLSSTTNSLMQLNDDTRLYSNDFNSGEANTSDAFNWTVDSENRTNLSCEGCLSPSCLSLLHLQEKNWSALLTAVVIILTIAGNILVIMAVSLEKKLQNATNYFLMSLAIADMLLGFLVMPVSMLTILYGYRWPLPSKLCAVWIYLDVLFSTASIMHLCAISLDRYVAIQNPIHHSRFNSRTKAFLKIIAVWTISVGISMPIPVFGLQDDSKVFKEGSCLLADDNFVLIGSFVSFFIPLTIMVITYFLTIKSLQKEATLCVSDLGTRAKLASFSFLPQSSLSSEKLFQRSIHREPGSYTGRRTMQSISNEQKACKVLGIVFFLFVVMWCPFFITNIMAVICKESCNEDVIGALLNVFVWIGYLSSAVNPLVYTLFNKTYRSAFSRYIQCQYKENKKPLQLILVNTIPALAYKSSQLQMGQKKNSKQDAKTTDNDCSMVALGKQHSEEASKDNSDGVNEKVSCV
5-HT7 receptor, sequence (P34969 whole entry): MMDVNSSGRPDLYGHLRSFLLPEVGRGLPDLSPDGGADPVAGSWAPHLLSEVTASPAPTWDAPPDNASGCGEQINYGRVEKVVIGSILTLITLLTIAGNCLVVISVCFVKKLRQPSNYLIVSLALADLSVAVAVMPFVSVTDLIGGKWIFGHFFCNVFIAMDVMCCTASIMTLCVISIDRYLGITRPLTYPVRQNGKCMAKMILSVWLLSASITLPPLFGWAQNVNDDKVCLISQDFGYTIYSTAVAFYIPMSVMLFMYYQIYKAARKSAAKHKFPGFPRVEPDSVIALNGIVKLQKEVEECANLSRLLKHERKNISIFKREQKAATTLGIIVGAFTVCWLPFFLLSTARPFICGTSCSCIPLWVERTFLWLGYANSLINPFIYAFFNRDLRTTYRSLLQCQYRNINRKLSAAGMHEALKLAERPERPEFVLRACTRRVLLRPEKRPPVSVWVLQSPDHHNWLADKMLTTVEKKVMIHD
T3 sequence (P14416 whole entry): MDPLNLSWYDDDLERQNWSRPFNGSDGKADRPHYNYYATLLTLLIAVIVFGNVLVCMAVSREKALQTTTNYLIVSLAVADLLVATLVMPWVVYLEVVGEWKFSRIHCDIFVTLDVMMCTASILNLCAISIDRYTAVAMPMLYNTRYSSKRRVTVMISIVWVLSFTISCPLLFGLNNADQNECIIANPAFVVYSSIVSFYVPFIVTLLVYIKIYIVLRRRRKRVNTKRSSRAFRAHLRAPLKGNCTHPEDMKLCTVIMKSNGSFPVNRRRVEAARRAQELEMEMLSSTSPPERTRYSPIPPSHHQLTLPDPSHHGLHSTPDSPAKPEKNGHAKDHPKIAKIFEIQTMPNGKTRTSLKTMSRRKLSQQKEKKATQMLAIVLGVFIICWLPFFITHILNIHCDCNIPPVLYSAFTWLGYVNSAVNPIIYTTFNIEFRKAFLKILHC

Structure (SMILES): COc1cccc2c1C(=O)N(CCCCc1nc3ccccc3[nH]1)C2=O [Compound 18, 2-[4-(1H-Benzimidazol-2-yl)butyl]-4-methoxy-1H-isoindole-1,3(2H)-dione]
- inhibition at 3 µM (PDE10A; 1 h, percentage of inhibition respective to vehicle control (DMSO), 3 µM): 79%
- inhibition at 10 µM (PDE10A; 1 h, percentage of inhibition respective to vehicle control (DMSO), 10 µM): 92%
- IC50 (PDE10A; SEM of three independent experiments performed in duplicate): 0.886 ± 0.017 µM
- inhibition at 1 µM (5-HT1A receptor): 28 ± 3%
- inhibition at 1 µM (5-HT7 receptor): 3 ± 1%
- inhibition at 1 µM (5-HT2A receptor): 8.8%
- inhibition at 1 µM (D2 receptor): 0%
- cell viability (MTT) [1]: Decreasing cell viability (HepG2/SHSY-5Y) is observed only at higher concentrations
- cell viability (MTT) [2]: Decreasing cell viability (HepG2/SHSY-5Y) is observed only at higher concentrations
- effect on AMPH-induced hyperactivity (CD-1 mice [3]; 60 mg/kg ip): decreased AMPH-induced hyperactivity, but only for the first 10 min after injection
- effect on AMPH-induced hyperactivity (CD-1 mice [3]; lower doses (data not shown)): did not change the stimulating effect of AMPH
- effect on spontaneous locomotor activity (CD-1 mice [4]; 60 mg/kg): locomotor-suppressing effects were observed
- spontaneous locomotor activity (CD-1 mice [4]; 10 min of the test): 176.2
- spontaneous locomotor activity (CD-1 mice [4]; 20 min of the test): 285.0
- spontaneous locomotor activity (CD-1 mice [4]; 30 min of the test): 659.6
- spontaneous locomotor activity (CD-1 mice [4]; 60 min of the test): 1875.4
- melting point: 69 to 70 °C
